Reference: the supplement of paper PMC10307832

Assays:
Experiment in all cases: relative viability (nuclei count vs DMSO), 5 days (fraction); higher = more cells survive
IPA-3 + Crizotinib = compound: C1=CC=C2C(=C1)C=CC(=C2SSC3=C(C=CC4=CC=CC=C43)O)O [IPA-3] + C[C@@H](Oc1cc(-c2cnn(C3CCNCC3)c2)cnc1N)c1c(Cl)ccc(F)c1Cl [Crizotinib] (partner 1 µM)
How it was run: (§1)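 Relative viability was taken as the ratio of nuclei in treated wells to nuclei in vehicle wells. Lung cancer cell lines in 1536-well plates received compounds by pin tool one day after seeding, either one drug alone or a fixed anchor-drug dose plus five library-drug doses (not always all listed) in √10 steps. Nuclei were counted on 4× images after 5 days of treatment, and values are medians of duplicate plates.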

Doramapimod + Decitabine = compound: Cc1ccc(-n2nc(C(C)(C)C)cc2NC(=O)Nc2ccc(OCCN3CCOCC3)c3ccccc23)cc1 [Doramapimod] + Nc1ncn([C@H]2C[C@H](O)[C@@H](CO)O2)c(=O)n1 [Decitabine] (partner 2 µM)
How it was run: as §1

RAF265 + Luminespib = compound: Cn1c(Nc2ccc(C(F)(F)F)cc2)nc2cc(Oc3ccnc(-c4ncc(C(F)(F)F)[nH]4)c3)ccc21 [RAF265] + CCNC(=O)c1noc(-c2cc(C(C)C)c(O)cc2O)c1-c1ccc(CN2CCOCC2)cc1 [Luminespib] (partner 0.01 µM)
How it was run: as §1

IPA-3 + Bortezomib = compound: C1=CC=C2C(=C1)C=CC(=C2SSC3=C(C=CC4=CC=CC=C43)O)O [IPA-3] + CC(C)C[C@H](NC(=O)[C@H](Cc1ccccc1)NC(=O)c1cnccn1)B(O)O [Bortezomib] (partner 0.002 µM)
How it was run: as §1

Cell Line	relative viability (IPA-3 + Crizotinib; first compound 0.2 µM)	relative viability (IPA-3 + Crizotinib; first compound 0.6325 µM)	relative viability (IPA-3 + Crizotinib; first compound 2 µM)	relative viability (IPA-3 + Crizotinib; first compound 6.325 µM)	relative viability (IPA-3 + Crizotinib; first compound 20 µM)	relative viability (Doramapimod + Decitabine; first compound 0.02 µM)	relative viability (Doramapimod + Decitabine; first compound 0.06325 µM)	relative viability (Doramapimod + Decitabine; first compound 0.2 µM)	relative viability (Doramapimod + Decitabine; first compound 0.6325 µM)	relative viability (Doramapimod + Decitabine; first compound 2 µM)	relative viability (RAF265 + Luminespib; first compound 0.01 µM)	relative viability (RAF265 + Luminespib; first compound 0.03162 µM)	relative viability (RAF265 + Luminespib; first compound 0.1 µM)	relative viability (RAF265 + Luminespib; first compound 0.3162 µM)	relative viability (RAF265 + Luminespib; first compound 1 µM)	relative viability (IPA-3 + Bortezomib; first compound 0.2 µM)	relative viability (IPA-3 + Bortezomib; first compound 0.6325 µM)	relative viability (IPA-3 + Bortezomib; first compound 2 µM)	relative viability (IPA-3 + Bortezomib; first compound 6.325 µM)	relative viability (IPA-3 + Bortezomib; first compound 20 µM)
NCI-H2170	1.24	1.11	1.18	1.16	1.33	0.472	0.459	0.483	0.518	0.469	0.791	0.658	0.688	0.254	0.381	–	–	–	–	–
HCC-366	0.697	0.564	0.617	0.521	0.618	0.373	0.276	0.315	0.37	0.28	–	–	–	–	–	1.36	0.996	1.04	1.08	1.25
NCI-H2347	0.834	0.749	0.724	0.697	0.708	0.671	0.604	0.626	0.656	0.634	0.445	0.775	0.849	0.337	0.234	0.916	1.01	1.12	0.937	1.3
COR-L 105	0.954	0.757	0.704	0.788	0.964	0.602	0.641	0.718	0.802	0.676	0.826	0.821	0.666	0.766	0.385	0.856	0.885	0.7	0.879	0.603
201T	1.04	1.01	1.05	1.03	1.04	0.857	0.863	0.886	0.921	0.925	1.07	0.972	1.03	0.995	0.997	1.08	0.931	1.08	1.12	1.13
NCI-H2126	1.05	0.983	1.05	1.03	1.14	0.561	0.57	0.543	0.614	0.55	0.918	0.87	0.908	0.628	0.654	1.19	1.11	1.13	1.11	1.19
LC-2-ad	0.499	0.523	0.419	0.477	0.488	0.828	0.776	0.793	0.854	0.768	1.31	1.05	1.14	0.692	0.672	1	0.974	1.05	0.983	0.998
NCI-H2085	0.89	0.912	0.876	0.931	0.995	0.612	0.526	0.563	0.584	0.56	0.493	0.403	0.492	0.428	0.427	1.19	0.99	1.01	0.937	1.27
NCI-H358	0.454	0.663	0.611	0.595	0.574	0.209	0.203	0.197	0.232	0.205	0.28	0.21	0.231	0.166	0.126	–	–	–	–	–
H3255	1.11	0.86	0.962	0.749	1.03	0.688	0.581	0.767	–	0.569	0.767	0.876	0.953	–	0.634	0.818	0.709	0.601	0.754	0.846
NCI-H2228	0.437	0.383	0.439	0.376	0.597	–	–	–	–	–	0.191	0.118	0.186	0.126	0.0971	1.24	1.04	1.07	1.15	0.855
CAL-12T	0.479	0.6	0.699	0.516	0.69	–	–	–	–	–	0.238	0.426	0.341	0.491	0.0919	0.956	0.987	0.847	0.935	1.15
A-427	1.11	0.775	0.896	0.91	1.12	0.588	0.557	0.536	–	0.541	0.691	0.821	1.16	0.631	0.226	0.976	0.974	1.01	0.942	1.01
HARA	1.21	1.22	1.09	1.14	1.24	0.52	0.463	0.49	0.574	0.42	0.64	0.627	0.476	0.509	0.165	1.16	1.06	1.13	1.01	1.24
NCI-H1793	–	–	–	–	–	0.523	0.449	0.526	0.483	0.392	0.212	0.147	0.184	–	0.222	–	–	–	–	–
NCI-H1623	–	–	–	–	–	–	–	–	–	–	0.608	0.48	0.63	–	0.33	–	–	–	–	–
NCI-H2009	1.12	1	1.04	0.915	0.924	0.35	0.408	0.45	0.384	0.329	1.05	0.95	0.975	1.03	0.883	1.27	0.95	1.09	0.943	0.715
ABC-1	1.12	1.17	–	0.981	1.06	1	1.19	0.983	0.959	1.01	0.656	0.823	0.75	0.519	0.265	0.297	0.345	–	0.295	0.257
IA-LM	1.25	0.683	0.904	0.553	0.555	–	–	–	–	–	–	–	–	–	–	0.883	0.808	0.842	0.703	0.546
